Assay results: the supplement of paper PMC5908809

Key:
KHYG-1 (IL-2 2.5 ng/mL) [1] = test: percent inhibition of viability; higher = more inhibition; details: 72 h
DERL-7 (IL-2 2.5 ng/mL) [2] = test: as above; details: 72 h
[3] = system: normal primary NK cells, pool 1 (3 donors) (IL-2 2.5 ng/mL); test: as above; details: 72 h
KAI3 (IL-2 2.5 ng/mL) [4] = test: as above; details: 72 h
NKL (IL-2 2.5 ng/mL) [5] = test: as above; details: 72 h
[6] = system: normal primary NK cells, pool 1 (3 donors), resting (IL-2 0 ng/mL); test: as above; details: 72 h
NK-YS (IL-2 2.5 ng/mL) [7] = test: as above; details: 72 h
SNK-6 (IL-2 2.5 ng/mL) [8] = test: as above; details: 72 h
NK-92 (IL-2 2.5 ng/mL) [9] = test: as above; details: 72 h
YT (IL-2 2.5 ng/mL) [10] = test: as above; details: 72 h
KHYG-1 (IL-2 2.5 ng/mL) [11] = test: drug sensitivity score (DSS) (DSS units); higher = more sensitive; extreme values may be limits of the assay; details: 72 h
DERL-7 (IL-2 2.5 ng/mL) [12] = test: as above; details: 72 h
[13] = system: normal primary NK cells, pool 1 (3 donors) (IL-2 2.5 ng/mL); test: as above; details: 72 h
KAI3 (IL-2 2.5 ng/mL) [14] = test: as above; details: 72 h
NKL (IL-2 2.5 ng/mL) [15] = test: as above; details: 72 h
[16] = system: normal primary NK cells, pool 1 (3 donors), resting (IL-2 0 ng/mL); test: as above; details: 72 h
NK-YS (IL-2 2.5 ng/mL) [17] = test: as above; details: 72 h
SNK-6 (IL-2 2.5 ng/mL) [18] = test: as above; details: 72 h
NK-92 (IL-2 2.5 ng/mL) [19] = test: as above; details: 72 h
YT (IL-2 2.5 ng/mL) [20] = test: as above; details: 72 h
[21] = system: normal primary NK cells, pool 3 (3 donors) (IL-2 2.5 ng/mL); test: percent inhibition of viability; higher = more inhibition; details: 72 h
IMC-1 (IL-2 20 ng/mL) [22] = test: as above; details: 72 h
[23] = system: normal primary NK cells, pool 2 (3 donors) (IL-2 2.5 ng/mL); test: as above; details: 72 h
[24] = system: normal NK cells expanded with K562-aAPC; test: as above; details: 72 h, IL-2 2.5 ng/mL
Experimental: (§1)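 Drug sensitivity and resistance testing on K562-aAPC-expanded normal NK cells: 5 concentrations (10-fold steps over a 10,000-fold range), 72 h at 37 °C, viability by CellTiter-Glo normalised to DMSO and benzethonium chloride controls; DSS from the fitted curve.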

[25] = system: normal primary NK cells, pool 3 (3 donors) (IL-2 2.5 ng/mL); test: drug sensitivity score (DSS) (DSS units); higher = more sensitive; extreme values may be limits of the assay; details: 72 h
IMC-1 (IL-2 20 ng/mL) [26] = test: as above; details: 72 h
[27] = system: normal primary NK cells, pool 2 (3 donors) (IL-2 2.5 ng/mL); test: as above; details: 72 h
[28] = system: normal NK cells expanded with K562-aAPC; test: as above; details: 72 h; IL-2 2.5 ng/mL
Experimental: as §1

Cc1cnc(Nc2ccc(OCCN3CCCC3)cc2)nc1Nc1cccc(S(=O)(=O)NC(C)(C)C)c1 (max concentration tested 10000 nM)
percent inhibition of viability [%]
Details | DERL-7 (IL-2 2.5 ng/mL) [2] | KAI3 (IL-2 2.5 ng/mL) [4] | KHYG-1 (IL-2 2.5 ng/mL) [1] | NK-92 (IL-2 2.5 ng/mL) [9] | NK-YS (IL-2 2.5 ng/mL) [7] | NKL (IL-2 2.5 ng/mL) [5] | SNK-6 (IL-2 2.5 ng/mL) [8] | YT (IL-2 2.5 ng/mL) [10] | [3] | [6]
1 nM | 2.35 | -2.12 | -4.97 | -22 | -4.69 | -6.46 | -5 | -4.96 | 2.15 | -0.59
10 nM | 0.3 | 8.65 | -1.52 | -8.95 | 1.18 | 3.43 | -10.1 | -1.05 | 0.15 | 16
100 nM | 26.8 | 26.5 | 7.04 | -15.3 | 10.9 | 50.6 | -13.7 | 6.19 | 24.1 | 14.1
1000 nM | 84.8 | 90.3 | 99.4 | 33 | 68.9 | 83.5 | 58.4 | 51.3 | 83 | 51.8
10000 nM | 101 | 108 | 108 | 106 | 108 | 109 | 101 | 107 | 99.8 | 96.5

Details | drug sensitivity score
DERL-7 (IL-2 2.5 ng/mL) [12] | 18.8
KAI3 (IL-2 2.5 ng/mL) [14] | 19.8
KHYG-1 (IL-2 2.5 ng/mL) [11] | 19
NK-92 (IL-2 2.5 ng/mL) [19] | 10.2
NK-YS (IL-2 2.5 ng/mL) [17] | 14.6
NKL (IL-2 2.5 ng/mL) [15] | 22.6
SNK-6 (IL-2 2.5 ng/mL) [18] | 12.4
YT (IL-2 2.5 ng/mL) [20] | 11.8
[13] | 18.2
[16] | 12.3

Cc1cnc(Nc2ccc(OCCN3CCCC3)cc2)nc1Nc1cccc(S(=O)(=O)NC(C)(C)C)c1 [Fedratinib] (max concentration tested 10000 nM)
percent inhibition of viability [%]
Details | 1 nM | 10 nM | 100 nM | 1000 nM | 10000 nM
IMC-1 (IL-2 20 ng/mL) [22] | -6.81 | -6.37 | -28.8 | 55 | 101
[21] | -3.74 | -2.87 | 15.8 | 68.8 | 100
[23] | -1.22 | -4.41 | 13.2 | 72.5 | 100
[24] | -1.65 | -2.82 | 11.2 | 73.8 | 101

Details | drug sensitivity score
IMC-1 (IL-2 20 ng/mL) [26] | 12.1
[25] | 14.9
[27] | 15.3
[28] | 15.3

COc1cc(C(=O)O)ccc1NC(=O)[C@@H]1N[C@@H](CC(C)(C)C)[C@](C#N)(c2ccc(Cl)cc2F)[C@H]1c1cccc(Cl)c1F [Idasanutlin] (max concentration tested 10000 nM)
percent inhibition of viability [%]
Details | 1 nM | 10 nM | 100 nM | 1000 nM | 10000 nM
IMC-1 (IL-2 20 ng/mL) [22] | -3 | 0.8 | -0.27 | 12.7 | 40.4
[21] | -6.26 | -3.17 | 33.5 | 68.8 | 95.6
[23] | -8.25 | -4.67 | 32.8 | 82.7 | 97.8
[24] | 6.65 | 13.4 | 39.6 | 95.2 | 101

Details | drug sensitivity score
IMC-1 (IL-2 20 ng/mL) [26] | 3.88
[25] | 17
[27] | 19.3
[28] | 21.9

COc1cc(C(=O)O)ccc1NC(=O)[C@@H]1N[C@@H](CC(C)(C)C)[C@](C#N)(c2ccc(Cl)cc2F)[C@H]1c1cccc(Cl)c1F [RG7388] (max concentration tested 10000 nM)
percent inhibition of viability [%]
Details | DERL-7 (IL-2 2.5 ng/mL) [2] | KAI3 (IL-2 2.5 ng/mL) [4] | KHYG-1 (IL-2 2.5 ng/mL) [1] | NK-92 (IL-2 2.5 ng/mL) [9] | NK-YS (IL-2 2.5 ng/mL) [7] | NKL (IL-2 2.5 ng/mL) [5] | SNK-6 (IL-2 2.5 ng/mL) [8] | YT (IL-2 2.5 ng/mL) [10] | [3] | [6]
1 nM | -5.33 | 5.19 | -1.57 | 2.22 | 1.18 | 2.91 | 3.57 | 6.01 | 1.86 | -11.7
10 nM | 3.83 | 25.6 | 1.09 | -12.5 | 18.7 | 8.19 | 25.5 | 14.9 | -0.07 | 10.5
100 nM | 51.1 | 39.8 | -3.21 | 8.42 | 53.1 | 7.58 | 70.5 | 38.6 | 41.8 | 85.2
1000 nM | 96.7 | 59.1 | -4.2 | 8.41 | 82.9 | 5.83 | 81.8 | 50.9 | 90.3 | 92.2
10000 nM | 101 | 68.4 | 53.8 | 65.4 | 99.9 | 67 | 92.7 | 86.7 | 99.1 | 93.6

Details | drug sensitivity score
DERL-7 (IL-2 2.5 ng/mL) [12] | 23.8
KAI3 (IL-2 2.5 ng/mL) [14] | 18.3
KHYG-1 (IL-2 2.5 ng/mL) [11] | 2.54
NK-92 (IL-2 2.5 ng/mL) [19] | 5
NK-YS (IL-2 2.5 ng/mL) [17] | 23.3
NKL (IL-2 2.5 ng/mL) [15] | 4.61
SNK-6 (IL-2 2.5 ng/mL) [18] | 27.2
YT (IL-2 2.5 ng/mL) [20] | 16.1
[13] | 21.8
[16] | 28.8

CC[C@H](C)C(=O)O[C@H]1C[C@H](O)C=C2C=C[C@H](C)[C@H](CC[C@@H](O)C[C@@H](O)CC(=O)O)[C@H]21 [Pravastatin] (max concentration tested 10000 nM)
percent inhibition of viability [%]
Details | 1 nM | 10 nM | 100 nM | 1000 nM | 10000 nM
IMC-1 (IL-2 20 ng/mL) [22] | 1.44 | 3.55 | -0.89 | 2.49 | 1.04
[21] | -14.4 | -6.44 | 1.67 | -7.95 | -0.67
[23] | -8.99 | -4.79 | 10.9 | -9.05 | 10.6
[24] | -2.35 | -3.35 | 0.49 | 5.71 | 4.92

Details | drug sensitivity score
IMC-1 (IL-2 20 ng/mL) [26] | 0
[25] | 0
[27] | 0
[28] | 0
